Measurements as given in article PMC10406626, “Structural displacement model of chitooligosaccharide transport through chitoporin” (The Journal of Biological Chemistry, 2023).
Where “and” joins values, the source holds several entries; their conditions need not be identical. Identical values can stand only once. Like-named read-outs stand apart in the source and are kept apart here.

Columns and labels:
[1] = target: N-terminally truncated VhChiP (lacking the N-plug) (Vibrio campbellii (formerly Vibrio harveyi) ATCC BAA-1116); assay: crystal structure; truncated VhChiP, ligand-free (C121, a single trimer per asymmetric unit) and cocrystallised with chitohexaose (P1, two trimers per asymmetric unit)
CymA = test system: CymA; design: method as in PMID 10455198; settings: cited from earlier work
maltoporin (LamB) = test system: maltoporin (LamB); design: method as in PMID 11415317; settings: cited from earlier work
truncated VhChiP [2] = target: T1, truncated VhChiP (Vibrio campbellii, UniProt L0RVU0); assay: Single-channel BLM recordings, chitohexaose titration of truncated VhChiP (without or with N-plug peptide); type: binding; settings: for K (equilibrium binding constant) / koff / kon: truncated
Experimental: Single-channel analysis using the BLM reconstitution technique was performed as described previously ([13], [34], [35]). The lipid bilayer cuvette consisted of a 25-μm thick Teflon film sandwiched between two chambers. […] The chambers were filled with electrolyte solution and Ag/AgCl electrodes immersed on either side of the Teflon film. The electrolyte used was 1 M KCl buffered with 20 mM Hepes, pH 7.4. 1,2-diphytanoyl-sn-glycero-3-phosphatidylcholine (Avanti Polar Lipids) was used for lipid bilayer formation. To form the bilayer, the aperture was first prepainted with 1 μl of 1% (v/v) hexadecane in pentane (Sigma-Aldrich). One of the electrodes was used as the ground (cis), while the other electrode (trans) was connected to the head-stage of an Axopatch 200B amplifier (Axon Instruments). VhChiP (20–100 ng μL^−1) was added to the solution on the cis side of the lipid membrane. At applied transmembrane potentials of ±100 mV, a single channel was frequently inserted within a few minutes. The protein solution in the chamber was then gently diluted by multiple additions of the working electrolyte, to prevent multiple insertions. Single-channel current measurements were performed in the voltage-clamp mode, with the internal filter set at 10 kHz. Amplitude, probability, and single-channel analyses were performed using pClamp v.10.5 software (https://www.moleculardevices.com/products/axon-patch-clamp-system/acquisition-and-analysis-software/pclamp-software-suite) (all from Molecular Devices). […] Occlusions of ion flow caused by sugar diffusion through the inserting channel were usually recorded for 2 min. To determine the kinetics of sugar translocation on individual subunit blockages, discrete concentrations of chitohexaose (0, 0.25, 0.5, and 1.0 μM) was tested. To study channel blocking behaviors of the N-plug, the first nine amino acids (Asp^1-Lys^9) (the so-called N-plug peptide) that plugged the channel was synthesized (GenScript). Two concentrations of the peptide (10 and 40 μM) were added to either the cis or the trans side of the chamber, containing with or without 1 μM of chitohexaose on the cis side.
(§1) The equilibrium binding constant K (M^-1) was estimated from the decrease in the ion conductance in the presence of increasing concentrations of sugar using the following equation ([36]):(1) Gmax−Gc/Gmax=Imax−Ic/Imax=K[C]/(K[C]+1)
(§2) Gmax is the average conductance of the fully open VhChiP channel, and Gc is the average conductance at a given concentration [c] of chitohexaose. Imax is the initial current through the fully open channel in the absence of sugar, and Ic is the current at a particular sugar concentration. The titration experiments were also analyzed using double reciprocal plots.

WT VhChiP [3] = target: T2, WT VhChiP (Vibrio campbellii, UniProt L0RVU0); assay: Single-channel BLM recordings, chitohexaose titration of WT VhChiP; type: binding; settings: no N-plug peptide
T2 sequence (L0RVU0 26-375): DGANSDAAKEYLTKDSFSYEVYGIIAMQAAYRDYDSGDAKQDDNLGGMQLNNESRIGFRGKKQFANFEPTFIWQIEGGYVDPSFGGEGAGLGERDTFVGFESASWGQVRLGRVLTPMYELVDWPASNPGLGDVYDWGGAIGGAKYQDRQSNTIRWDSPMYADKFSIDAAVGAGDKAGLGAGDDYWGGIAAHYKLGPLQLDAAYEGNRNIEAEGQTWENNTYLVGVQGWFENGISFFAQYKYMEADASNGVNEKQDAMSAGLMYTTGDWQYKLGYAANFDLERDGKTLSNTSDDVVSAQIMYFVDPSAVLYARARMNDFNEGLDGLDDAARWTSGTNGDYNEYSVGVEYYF
Experimental: Single-channel analysis using the BLM reconstitution technique was performed as described previously ([13], [34], [35]). The lipid bilayer cuvette consisted of a 25-μm thick Teflon film sandwiched between two chambers. […] The chambers were filled with electrolyte solution and Ag/AgCl electrodes immersed on either side of the Teflon film. The electrolyte used was 1 M KCl buffered with 20 mM Hepes, pH 7.4. 1,2-diphytanoyl-sn-glycero-3-phosphatidylcholine (Avanti Polar Lipids) was used for lipid bilayer formation. To form the bilayer, the aperture was first prepainted with 1 μl of 1% (v/v) hexadecane in pentane (Sigma-Aldrich). One of the electrodes was used as the ground (cis), while the other electrode (trans) was connected to the head-stage of an Axopatch 200B amplifier (Axon Instruments). VhChiP (20–100 ng μL^−1) was added to the solution on the cis side of the lipid membrane. At applied transmembrane potentials of ±100 mV, a single channel was frequently inserted within a few minutes. The protein solution in the chamber was then gently diluted by multiple additions of the working electrolyte, to prevent multiple insertions. Single-channel current measurements were performed in the voltage-clamp mode, with the internal filter set at 10 kHz. Amplitude, probability, and single-channel analyses were performed using pClamp v.10.5 software (https://www.moleculardevices.com/products/axon-patch-clamp-system/acquisition-and-analysis-software/pclamp-software-suite) (all from Molecular Devices). To investigate sugar translocation, chitooligosaccharide was added to the cis side of the chamber at a final concentration of 5 μM. Occlusions of ion flow caused by sugar diffusion through the inserting channel were usually recorded for 2 min. To determine the kinetics of sugar translocation on individual subunit blockages, discrete concentrations of chitohexaose (0, 0.25, 0.5, and 1.0 μM) was tested. To study channel blocking behaviors of the N-plug, the first nine amino acids (Asp^1-Lys^9) (the so-called N-plug peptide) that plugged the channel was synthesized (GenScript). Two concentrations of the peptide (10 and 40 μM) were added to either the cis or the trans side of the chamber, containing with or without 1 μM of chitohexaose on the cis side.
as §1, §2

VhChiP D1A mutant [4] = target: T3, VhChiP D1A mutant (Vibrio campbellii, UniProt L0RVU0, D26A); assay: Single-channel BLM recordings, chitohexaose titration of D1A mutant; type: binding; settings: sugar on cis side
T3 sequence (L0RVU0 26-375 D26A): T2 sequence (L0RVU0 26-375)
Experimental: Single-channel analysis using the BLM reconstitution technique was performed as described previously ([13], [34], [35]). The lipid bilayer cuvette consisted of a 25-μm thick Teflon film sandwiched between two chambers. […] The chambers were filled with electrolyte solution and Ag/AgCl electrodes immersed on either side of the Teflon film. The electrolyte used was 1 M KCl buffered with 20 mM Hepes, pH 7.4. 1,2-diphytanoyl-sn-glycero-3-phosphatidylcholine (Avanti Polar Lipids) was used for lipid bilayer formation. To form the bilayer, the aperture was first prepainted with 1 μl of 1% (v/v) hexadecane in pentane (Sigma-Aldrich). One of the electrodes was used as the ground (cis), while the other electrode (trans) was connected to the head-stage of an Axopatch 200B amplifier (Axon Instruments). VhChiP (20–100 ng μL^−1) was added to the solution on the cis side of the lipid membrane. At applied transmembrane potentials of ±100 mV, a single channel was frequently inserted within a few minutes. […] Occlusions of ion flow caused by sugar diffusion through the inserting channel were usually recorded for 2 min. […]
Gmax is the average conductance of the fully open VhChiP channel, and Gc is the average conductance at a given concentration [c] of chitohexaose. […] The titration experiments were also analyzed using double reciprocal plots.

WT VhChiP [5] = target: T2, WT VhChiP; assay: ITC, chitohexaose into WT VhChiP; type: binding; settings: 25 °C
Experimental: (§3) ITC experiments were carried out at least three times using the MicroCal PEAQ-ITC (Malvern Instruments Ltd) at 25 ± 1 °C with a stirring speed of 500 rpm. For titration experiments, 40 μl of chitohexaose or the N-plug was titrated from a syringe into the 300 μl-calorimeter cells containing 0.05% (v/v) LDAO, 20 mM sodium phosphate buffer, pH 7.5, and protein solution. Injections (2 μl per injection) were repeated 19 times over 150-s intervals. The background was measured by injecting the corresponding ligand into the cell containing only the buffer. The ITC data were collected and analyzed using the MicroCal PEAQ-ITC analysis software (https://www.malvernpanalytical.com/en/support/product-support/software/microcal-peaq-itc-analysis-software-v141). The ITC profile obtained by injecting the corresponding ligand into the reaction cell containing buffer without VhChiP was subtracted from the […] dataset. The resultant data were fitted by a single-site binding model with the nonlinear least square algorithm.

truncated VhChiP [6] = target: T1, truncated VhChiP; assay: ITC, chitohexaose into truncated VhChiP; type: binding; settings: 25 °C
Experimental: as §3

[7] = target: truncated VhChiP mixed with the N-plug peptide (Vibrio campbellii, UniProt L0RVU0); assay: ITC, chitohexaose into truncated VhChiP mixed with N-plug peptide; type: binding; settings: 25 °C, protein 20 μM, N-plug 5 μM
Experimental: as §3

N-plug peptide = N-plug peptide (Vibrio campbellii, UniProt L0RVU0); assay: ITC, chitohexaose into synthesized N-plug peptide; type: binding; settings: 25 °C
Experimental: as §3

VhChiP D1A mutant [8] = target: T3, VhChiP D1A mutant; assay: ITC, chitohexaose into D1A mutant; type: binding; settings: 25 °C
Experimental: as §3

EcChiP [9] = assay: Literature single-channel analysis, EcChiP; type: binding, E. coli; settings: same sugar
EcChiP [10] = test system: EcChiP; design: method as in PMID 27226611, PMID 28972167; settings: single-channel analysis; cited from earlier work
ScrY = test system: ScrY; design: method as in PMID 9691119; settings: cited from earlier work
[11] = sugar on cis side, N-plug peptide on trans side
[12] = sugar on cis side, no N-plug peptide
[13] = sugar on trans side, no N-plug peptide

Question: For “N-terminally truncated VhChiP (lacking the N-plug) (domain or fragment)”, which stoichiometry N [1] is on record?
Answer: 3

Question: For cyclodextrin, which “binding constant (K)” value (CymA) is on record?
Answer: 31,300 M^−1

Question: Which “binding constant (K)” value (maltoporin (LamB)) does the source give for maltohexaose here?
Answer: 13,600 M^−1

Question: With “N-plug peptide: synthesized peptide corresponding to the first nine residues (DGANSDAAK, Asp1-Lys9) of VhChiP” as the compound, how does the channel blocking events (truncated VhChiP [2]; truncated channel, no sugar, peptide at 10 and 40 μM on trans side, +100 mV, 1 M KCl, 20 mM Hepes pH 7.4) read?
Answer: rare and short-lived blocking events

Question: What does the source list for `CC(=O)NC1C(O)OC(CO)C(OC2OC(CO)C(OC3OC(CO)C(OC4OC(CO)C(OC5OC(CO)C(OC6OC(CO)C(O)C(O)C6NC(C)=O)C(O)C5NC(C)=O)C(O)C4NC(C)=O)C(O)C3NC(C)=O)C(O)C2NC(C)=O)C1O` (stereo not drawn) [chitohexaose]?
Answer: K (equilibrium binding constant) (WT VhChiP [3]; WT, sugar on cis side): 250,000 M^−1; koff (WT VhChiP [3]; WT, sugar on cis side): 270 ± 400 s⁻¹; τc (average residence time) (WT VhChiP [3]; WT, sugar on cis side): 3.7 ± 0.3 ms and 3.7 ± 0.4 ms; kon (WT VhChiP [3]; WT, sugar on cis side, 1 M KCl, 20 mM Hepes pH 7.4, +100 mV): 68 ± 1.4 × 10^6 M^−1s^−1; K (equilibrium binding constant) (WT VhChiP [3]; WT, sugar on trans side): 240,000 M^−1; koff (WT VhChiP [3]; WT, sugar on trans side, read-out: koff): 210 ± 500 s⁻¹; kon (WT VhChiP [3]; WT, sugar on trans side, read-out: kon): 5e+07 ± 1.2e+06 M⁻¹ s⁻¹; kon (WT VhChiP [3]; pH 7.4, WT, sugar on cis side, 1 M KCl, 20 mM Hepes pH 7.4, +100 mV): 5.6e+07 ± 1e+07 M⁻¹ s⁻¹; reduction in the binding affinity, truncated vs WT (truncated VhChiP [2]; from Table 2): 22.3 fold; K (equilibrium binding constant) (truncated VhChiP [2]; sugar on cis side, N-plug peptide on cis side): incalculable; K (equilibrium binding constant) (truncated VhChiP [2]; [11]): 255,000 M^−1; koff (truncated VhChiP [2]; [11]): 220 ± 10 s⁻¹; kon (truncated VhChiP [2]; [11]): 5.6e+07 ± 100000 M⁻¹ s⁻¹; K (equilibrium binding constant) (truncated VhChiP [2]; [12]): 11,000 M^−1; koff (truncated VhChiP [2]; [12]): 500 ± 100 s⁻¹; K (equilibrium binding constant) (truncated VhChiP [2]; [13]): 23,000 M^−1; koff (truncated VhChiP [2]; [13]): 300 ± 100 s⁻¹; kon (truncated VhChiP [2]; [13]): 6.8e+06 ± 500000 M⁻¹ s⁻¹; K of D1A mutant less than WT channel (VhChiP D1A mutant [4]): 2.5 fold; n (site), stoichiometry (WT VhChiP [5]): 3.2 ± 0.1; Kd (WT VhChiP [5]; one-site binding fit): 0.3 ± 0.06 µM; n (site), stoichiometry (truncated VhChiP [6]): 2.8 ± 0.1; Kd (truncated VhChiP [6]; one-site binding fit): 10 ± 0.3 µM; Kd [7]: 2.9 ± 0.07 µM; n (site), stoichiometry [7]: 2.3 ± 0.2; Kd (N-plug peptide; N-plug 500 μM, no protein): 2600 ± 120 µM; n (site), stoichiometry (N-plug peptide; N-plug peptide alone): 1.0 ± 0.02; Kd (VhChiP D1A mutant [8]): 1.2 ± 0.2 µM; n (site), stoichiometry (VhChiP D1A mutant [8]): 3.0 ± 0.1; K of EcChiP less than that of VhChiP (EcChiP [9]): about 10 fold; K value (EcChiP [10]): 50,000 M^−1

Question: With `OC[C@H]1O[C@@](CO)(O[C@H]2O[C@H](CO)[C@@H](O)[C@H](O)[C@H]2O)[C@@H](O)[C@@H]1O` [sucrose] as the compound, how does the “binding constant (K)” value (ScrY) read?
Answer: 80 M⁻¹
